From US12583839B2, “PD-L1 antagonist compound” (ADLAI NORTYE BIOPHARMA CO., LTD., priority 2019, dated 2026)

molecular target: T1, PD-1/PD-L1 (Homo sapiens, UniProt Q9NZQ7); assay: Detection of biological activity of PD-1/PD-L1 signaling inhibition at the cellular level (NFAT luciferase reporter, PD-1/NFAT-Reporter-Jurkat cells co-cultured with TCR activator/PD-L1-CHO cells); format: cell-based; details: PD-1/NFAT-Reporter-Jurkat + TCR activator/PD-L1-CHO co-culture, 6 hours; Atezolizumab as positive control
T1 construct: 60535 (PD-1/NFAT-Reporter-Jurkat); host or cells: CHO cells expressing PD-L1; Jurkat cells expressing PD-1
Excerpt: Detection of Biological Activity of PD-1/PD-L1 Signaling Inhibition at the Cellular Level
This detection method is used for evaluating the biological activity of the compounds described in the present invention at the cellular level.
This detection method uses the luciferase reporter gene method to detect the biological activity of the compound on the inhibition of PD-1/PD-L1 signal at the cellular level. PD-1/NFAT—Reporter—Jurkat cells stably express human PD-1 and express the luciferase reporter gene regulated by NFAT elements; TCR activator/PD-L1-CHO cells stably express human PD-L1 and TCR activator elements. When the two cell lines were co-cultured, the binding of PD-1/PD-L1 inhibited the TCR signaling pathway, thereby inhibiting the expression of the downstream NFAT-controlled luciferase reporter gene. When PD-1/PD-L1 antibody or inhibitor is added, this inhibitory effect is reversed and luciferase is expressed, so that the effect of PD-1/PD-L1 inhibitor on luciferase activity can be detected.
PD-1/NFAT—Reporter—Jurkat cell (Cat: 60535) and TCR activator/PD-L1-CHO cell (Cat: 60536) were purchased from BPS Bioscience. Anti-human PD-L1 antibody (Atezolizumab, Cat: A2004) was purchased from Selleck; luciferase reporter gene expression detection kit (ONE-Glo™ Luciferase Assay System, Cat: E6120) was purchased from Promega; multifunction plate reader (SpectraMax i3x) was purchased from Molecular Devices.
The PD-1/NFAT—Reporter—Jurkat cells and TCR activator/PD-L1-CHO cells were cultured according to the routine cell culture protocol.
TCR activator/PD-L1-CHO cells were harvested and seeded into a 96-well culture plate at 35,000 cells/well in a medium volume of 100 μl and incubated overnight at 37° C. The next day, the medium was discarded, compound was added and incubated for 30 minutes, while a solvent control (dimethyl sulfoxide, DMSO, final concentration of 0.1%) and PD-L1 antibody (Atezolizumab, final concentration of about 10 nM) as positive controls were set. PD-1/NFAT-reporter-Jurkat cells were then added. After culturing for 6 hours, the luciferase activity was detected according to the instructions of the luciferase detection reagent.
Using PD-L1 antibody as a positive control, calculate the inhibition rate of PD-1/PD-L1 binding of the test compound (%)=(chemiluminescence value of compound treated wells/average value of chemiluminescence value of solvent control wells−1)/(average value of chemiluminescence value of PD-L1 antibody well/average value of chemiluminescence value of solvent control well−1)×100%.
According to the above detection method, the compounds of the present invention were evaluated for their biological activity at the cellular level, and the activity results are shown in the following table.

T1 sequence (Q9NZQ7 19-290): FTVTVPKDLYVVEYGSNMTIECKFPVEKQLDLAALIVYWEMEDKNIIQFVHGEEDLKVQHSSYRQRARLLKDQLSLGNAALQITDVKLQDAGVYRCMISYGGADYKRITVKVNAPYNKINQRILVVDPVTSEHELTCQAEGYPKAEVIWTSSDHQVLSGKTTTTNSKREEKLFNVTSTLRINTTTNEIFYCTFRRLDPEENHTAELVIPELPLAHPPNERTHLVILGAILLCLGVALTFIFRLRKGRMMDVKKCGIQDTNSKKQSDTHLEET

EC50 [nM]	SMILES
348	COc1cc(Cn2ncc3c(-c4cccc(-c5ccc(CNC[C@@H]6CCC(=O)N6)cc5)c4Cl)cccc32)c(Cl)cc1CN1C[C@H](O)C[C@H]1C(=O)O [Compound 42]
511	COc1cc(Cn2ncc3c(-c4cccc(-c5ccc(CNC[C@@H]6CCC(=O)N6)cc5)c4Cl)cccc32)c(Cl)cc1CN1CC[C@@H](C(=O)O)C1 [Compound 33]
395	N#Cc1cncc(COc2cc(Cn3ncc4c(-c5cccc(-c6ccc(CN7CCOCC7)cc6)c5Cl)cccc43)c(Cl)cc2CN[C@@H](CO)C(=O)O)c1 [Compound 3]
809	COc1cc(Cn2ncc3c(-c4cccc(-c5ccc(CNC[C@@H]6CCC(=O)N6)cc5)c4Cl)cccc32)c(Cl)cc1CN1CC(C(=O)O)C1 [Compound 38]
977	COc1cc(Cn2ncc3c(-c4cccc(-c5ccc(CNC[C@@H]6CCC(=O)N6)cc5)c4Cl)cccc32)c(Cl)cc1CN1CCC(C(=O)O)CC1 [Compound 37]
82	N#Cc1cncc(COc2cc(Cn3ncc4c(-c5cccc(-c6ccc(CNC[C@@H]7CCC(=O)N7)nc6)c5Cl)cccc43)c(Cl)cc2CN[C@@H](CO)C(=O)O)c1 [Compound 10]
66	COc1nc(-c2cccc(-c3cccc4c3cnn4Cc3cc(OCc4cncc(C#N)c4)c(CNCCO)cc3Cl)c2Cl)ccc1CNC[C@@H]1CCC(=O)N1 [Compound 29]
133	N#Cc1cncc(COc2cc(Cn3ncc4c(-c5cccc(-c6ccc(CNC[C@@H]7CCC(=O)N7)cc6)c5Cl)cccc43)c(Cl)cc2CN2CC[C@@H](C(=O)O)C2)c1 [Compound 27]
512	CC(C)OC(=O)[C@H](CO)NCc1cc(Cl)c(Cn2ncc3c(-c4cccc(-c5ccc(CNC[C@@H]6CCC(=O)N6)cc5)c4Cl)cccc32)cc1OCc1cncc(C#N)c1 [Compound 23]
859	COc1cc(Cn2ncc3c(-c4cccc(-c5ccc(CNC[C@@H]6CCC(=O)N6)cc5)c4Cl)cccc32)c(Cl)cc1CN1CCC[C@@H](C(=O)O)C1 [Compound 35]
562	N#Cc1cncc(COc2cc(Cn3ncc4c(-c5cccc(-c6ccc(CCN7CC[C@@H](O)C7)cc6)c5Cl)cccc43)c(Cl)cc2CN[C@@H](CO)C(=O)O)c1 [Compound 18]
31	COc1cc(-c2cccc(-c3cccc4c3cnn4Cc3cc(OCc4cncc(C#N)c4)c(CN[C@@H](CO)C(=O)O)cc3Cl)c2Cl)ccc1CNC[C@@H]1CCC(=O)N1 [Compound 8]
128	N#Cc1cncc(COc2cc(Cn3ncc4c(-c5cccc(-c6ccc(CNC[C@@H]7CCC(=O)N7)cc6)c5Cl)cccc43)c(Cl)cc2CN2CCC[C@H]2C(=O)O)c1 [Compound 25]

Second part, the compound before the results:

SMILES	EC50 [nM]
COc1cc(-c2cccc(-c3cccc4c3cnn4Cc3cc(OC)c(CN(C)C4CCC(CCC(=O)O)CC4)cc3Cl)c2Cl)ccc1CNC[C@@H]1CCC(=O)N1 (stereo partly shown) [Compound 121]	34
COc1cc(Cn2ncc3c(-c4cccc(-c5ccc(CN6CC[C@@H](C(=O)O)C6)c(OC)c5)c4Cl)cccc32)c(Cl)cc1CNC[C@@H]1CCC(=O)N1 [Compound 70]	222
COc1cc(Cn2ncc3c(-c4cccc(-c5cc(F)c(CNC[C@@H]6CCC(=O)N6)c(OC)c5)c4Cl)cccc32)c(C#N)cc1CN(C)[C@]12CC[C@@](C(=O)O)(CC1)CC2 [Compound 140]	25
COc1cc(-c2cccc(-c3cccc4c3cnn4Cc3cc(OC)c(CN(C)[C@H]4CC[C@H](CC(=O)O)CC4)cc3Cl)c2Cl)ccc1CNC[C@@H]1CCC(=O)N1 [Compound 95]	15
COc1cc(-c2cccc(-c3cccc4c3cnn4Cc3cc(OC)c(CNC[C@H]4CC[C@H](C(=O)O)CC4)cc3Cl)c2Cl)ccc1CNC[C@@H]1CCC(=O)N1 [Compound 54]	38
COc1cc(Cn2ncc3c(-c4cccc(-c5ccc(CN6CC[C@@H](O)C6)cc5)c4Cl)cccc32)c(Cl)cc1CNC[C@H]1CC[C@H](C(=O)O)CC1 [Compound 63]	950
COc1cc(Cn2ncc3c(-c4cccc(-c5ccc(CNC[C@@H]6CCC(=O)N6)cc5)c4Cl)cccc32)c(N)cc1CN[C@@H](CO)C(=O)O [Compound 89]	1110
COc1cc(-c2cccc(-c3cccc4c3cnn4Cc3cc(OC)c(CN[C@@H](CO)C(=O)O)cc3Cl)c2Cl)ccc1CNC[C@@H]1CCC(=O)N1 [Compound 53]	24
COc1cc(-c2cccc(-c3cccc4c3cnn4Cc3cc(OC)c(CN(C)C4CCC(C(=O)O)CC4)cc3C#N)c2Cl)ccc1CNC[C@@H]1CCC(=O)N1 (stereo partly shown) [Compound 107]	20
COc1cc(-c2cccc(-c3cccc4c3cnn4Cc3cc(OC)c(CN(C4CCC(C(=O)O)CC4)C4CC4)cc3Cl)c2Cl)ccc1CNC[C@@H]1CCC(=O)N1 (stereo partly shown) [Compound 122]	320
COc1cc(Cn2ncc3c(-c4cccc(-c5cc(F)c(CNC[C@@H]6CCC(=O)N6)c(OC)c5)c4Cl)cccc32)c(C#N)cc1CN(C)[C@H]1C[C@H](C(=O)O)C1 [Compound 139]	15
COc1cc(-c2cccc(-c3cccc4c3cnn4Cc3cc(OC)c(CN(CC4CC4)[C@H]4CC[C@H](C(=O)O)CC4)cc3Cl)c2Cl)ccc1CNC[C@@H]1CCC(=O)N1 [Compound 126]	103
COc1cc(Cn2ncc3c(-c4cccc(-c5cc(F)c(CNC[C@@H]6CCC(=O)N6)c(OC)c5)c4Cl)cccc32)c(C#N)cc1CN(C)[C@H]1CC[C@H](CC(=O)O)CC1 [Compound 141]	40
COc1cc(-c2cccc(-c3cccc4c3cnn4Cc3cc(OC)c(CN(C)C4CCC(C(=O)O)CC4)cc3[N+](=O)[O-])c2Cl)ccc1CNC[C@@H]1CCC(=O)N1 (stereo partly shown) [Compound 92]	15
COc1cc(-c2cccc(-c3cccc4c3cnn4Cc3cc(OCC(N)=O)c(CN(C)C[C@H]4CC[C@H](C(=O)O)CC4)cc3Cl)c2Cl)ccc1CNC[C@@H]1CCC(=O)N1 [Compound 127]	160
COc1cc(-c2cccc(-c3cccc4c3cnn4Cc3cc(OC)c(CN(C)C4CC(CC(=O)O)C4)cc3Cl)c2Cl)ccc1CNC[C@@H]1CCC(=O)N1 (stereo partly shown) [Compound 119]	152
COc1cc(-c2cccc(-c3cccc4c3cnn4Cc3nc(OC)c(CN(C)C45CCC(C(=O)O)(CC4)CC5)cc3Cl)c2C)cc(F)c1CNC[C@@H]1CCC(=O)N1 [Compound 166]	49
COc1cc(Cn2ncc3c(-c4cccc(-c5ccc(CNC[C@@H]6CCC(=O)N6)c(OC(C)C)c5)c4Cl)cccc32)c(Cl)cc1CN(C)CC1CCC(C(=O)O)CC1 (stereo partly shown) [Compound 98]	520
COc1cc(Cn2ncc3c(-c4cccc(-c5cc(OC)c(CNC[C@@H]6CCC(=O)N6)c(OC)c5)c4Cl)cccc32)c(Cl)cc1CN(C)CC1CCC(C(=O)O)CC1 (stereo partly shown) [Compound 102]	735
COc1cc(-c2cccc(-c3cccc4c3cnn4Cc3cc(OC)c(CN4CC[C@@H](C(=O)O)C4)cc3Cl)c2Cl)ccc1CNCCO [Compound 88]	80
COc1cc(-c2cccc(-c3cccc4c3cnn4Cc3cc(OC)c(CN(C)C4CCC(CC(=O)O)CC4)cc3C#N)c2Cl)ccc1CNC[C@@H]1CCC(=O)N1 (stereo partly shown) [Compound 108]	63
COc1cc(-c2cccc(-c3cccc4c3cnn4Cc3cc(OC)c(CN(C)C4CCC(/C=C/C(=O)O)CC4)cc3Cl)c2Cl)ccc1CNC[C@@H]1CCC(=O)N1 (stereo partly shown) [Compound 120]	32
COc1cc(Cn2ncc3c(-c4cccc(-c5cc(F)c(CNC[C@@H]6CCC(=O)N6)c(OC)c5)c4Cl)cccc32)c(Cl)cc1CN(C)[C@H]1CC[C@H](CCC(=O)O)CC1 [Compound 131]	40
COc1cc(-c2cccc(-c3cccc4c3cnn4Cc3cc(OC)c(CN(C)CC4CCC(C(=O)O)CC4)cc3[N+](=O)[O-])c2Cl)ccc1CNC[C@@H]1CCC(=O)N1 (stereo partly shown) [Compound 96]	45
